Assay results taken from paper PMC9657321, “Identification of Boronate-Containing Diarylpyrimidine Derivatives as Novel HIV-1 Non-Nucleoside Reverse Transcriptase Inhibitors” (Molecules, 2022).
Where two headings read alike, the source gives them in different places.

Columns and labels:
[1] = test system: HIV-1 F227L + V106A mutant strain; experiment: microbe, parasite or virus in culture; assay type: cell-based; settings: for EC50: Human immunodeficiency virus 1, MT4, read-out: EC50 F227L + V106A; for RF F227L + V106A: ratio EC50 (resistant viral strain)/EC50 (wild-type viral strain)
Description: (§1) All data were calculated using the median optical density (OD) value of three wells.

[2] = test system: HIV-1 Y188L mutant strain; experiment: microbe, parasite or virus in culture; assay type: cell-based; settings: for EC50: Human immunodeficiency virus 1, MT4, read-out: EC50 Y188L; for RF Y188L: ratio EC50 (resistant viral strain)/EC50 (wild-type viral strain)
Description: as §1

[3] = test system: HIV-1 L100I mutant strain; experiment: microbe, parasite or virus in culture; assay type: cell-based; settings: for EC50: Human immunodeficiency virus 1, MT4, read-out: EC50 L100I; for RF L100I: ratio EC50 (resistant viral strain)/EC50 (wild-type viral strain)
Description: as §1

[4] = test system: HIV-1 Y181C mutant strain; experiment: microbe, parasite or virus in culture; assay type: cell-based; settings: for EC50: Human immunodeficiency virus 1, MT4, read-out: EC50 Y181C, MT-4 cells, Y181C, MTT method; for RF Y181C: ratio EC50 (resistant viral strain)/EC50 (wild-type viral strain)
Description: as §1

[5] = test system: HIV-1 E138K mutant strain; experiment: microbe, parasite or virus in culture; assay type: cell-based; settings: for EC50: Human immunodeficiency virus 1, MT4, read-out: EC50 E138K; for RF E138K: ratio EC50 (resistant viral strain)/EC50 (wild-type viral strain)
Description: as §1

wild-type HIV-1 (IIIB) = experiment: microbe, parasite or virus in culture; assay type: cell-based; settings: for EC50: Human immunodeficiency virus 1, MT4, MT-4 cells, HIV-1 IIIB, MTT method; for RF IIIB: ratio EC50(resistant strain)/EC50(wild-type strain); for SI IIIB: selectivity index, ratio CC50/EC50, IIIB
Description: as §1

[6] = test system: HIV-1 K103N mutant strain; experiment: microbe, parasite or virus in culture; assay type: cell-based; settings: for EC50: Human immunodeficiency virus 1, MT4, read-out: EC50 K103N, MT-4 cells, K103N, MTT method; for RF K103N: ratio EC50 (resistant viral strain)/EC50 (wild-type viral strain)
Description: as §1

[7] = test system: HIV-1 double-mutant strain RES056 (K103N/Y181C); experiment: microbe, parasite or virus in culture; assay type: cell-based; settings: for EC50: Human immunodeficiency virus 1, MT4, read-out: EC50 RES056; for RF RES056: ratio EC50(resistant strain)/EC50(wild-type strain); for SI RES056: selectivity index, ratio CC50/EC50, RES056
Description: as §1

[8] = Cytotoxicity in mock-infected MT-4 cells, MTT method; assay type: cell-based; settings: human
Description: The 3-(4,5-dimethylthiazol-2-yl)-2,5-diphenyltetrazolium bromide (MTT) method was used to evaluate the antiviral activity and cytotoxicity of the synthesized compounds as previously described. At the beginning of each experiment, stock solutions (10× final concentration) of test compounds were added in 25 μL volumes to two series of triplicate wells for allowing the simultaneous evaluation of their effects on mock- and HIV-infected cells. The serial 5-fold dilutions of the compounds were made in flat-bottomed 96-well microtiter trays directly, including untreated control HIV-1 and mock infected cell samples for each sample using a Biomek 3000 robot (Beckman Instruments, Fullerton, CA, USA). HIV-1 (IIIB) and mutant HIV-1 strains (RES056, F227L/V106A, L100I, K103N, E138K, Y181C, and Y188L) stock (50 μL at 100–300 CCID50) (50% cell culture infectious dose) or culture medium was added to either the infected or mock-infected wells of the microtiter tray. Mock-infected cells were used to evaluate the effect on uninfected cells to assess the cytotoxicity of the test compounds. Exponentially growing MT-4 cells were centrifuged for […] at 1000 rpm (Eppendorf 5424, Hamburg, Germany) and then the supernatant was discarded. The MT-4 cells were resuspended at 6 × 10^5 cells/mL and 50 μL aliquots were transferred to the microtiter tray wells. At 5 days after infection, the viability of mock- and HIV-infected cells was determined spectrophotometrically by means of MTT assay.
The MTT assay is based on the reduction of yellow-colored MTT (Acros Organics, Geel, Belgium) by mitochondrial dehydrogenase of metabolically active cells to form a blue-purple formazan. The absorbances were read in an eight-channel computer-controlled photometer at the wavelengths of 540 and 690 nm. All data were calculated using the median optical density (OD) value of three wells.

[9] = target: T1, recombinant wild-type HIV-1 RT enzyme (Human immunodeficiency virus type 1 group M subtype B, UniProt P03366); experiment: HIV-1 RT inhibition assay (ELISA, Roche RT assay kit); assay type: biochemical
T1 construct: recombinant wild-type HIV-1 RT enzyme; purchased Roche (Basel, Switzerland)
Description: The HIV-1 RT inhibition assay was performed by using an RT assay kit produced by Roche (Basel, Switzerland).
The biotin-labeled dNTPs were incorporated into the cDNA chain in the presence of RT and bound to streptavidin. The washing buffer was used to wash the unbound dNTPs and add the anti-DIG-POD to the MTPs.
The peroxide substrate (ABST) solution was added to the MTPs, when the unbound anti-DIG-PODs were washed out. […] The absorbance of the sample was determined at OD405 nm using a microtiter plate ELISA reader. The percentage inhibitory activity of RT inhibitors was calculated according to the following formula: % inhibition = [O.D. value with RT but without inhibitors − O.D. value with RT and inhibitors]/[O.D. value with RT and inhibitors − O.D. value without RT and inhibitors].

[10] = mock-infected MT-4 cells, MTT method, read-out: CC50

| Structure (SMILES) | EC50 [2] [nM] | EC50 [3] [nM] | EC50 [4] [nM] | EC50 [5] [nM] | EC50 (wild-type HIV-1 (IIIB)) [nM] | RF IIIB (wild-type HIV-1 (IIIB)) | EC50 [7] [nM] | RF RES056 [7] | CC50 at 5 days [8] [nM] | melting point [°C] | SI IIIB (wild-type HIV-1 (IIIB)) | SI RES056 [7] | other results |
| --- | --- | --- | --- | --- | --- | --- | --- | --- | --- | --- | --- | --- | --- |
| Cc1cc(C#N)cc(C)c1Oc1nc(Nc2ccc(B3OC(C)(C)C(C)(C)O3)cc2)nc2ccsc12 [Compound 3a, 3,5-Dimethyl-4-((2-((4-(4,4,5,5-tetramethyl-1,3,2-dioxaborolan-2-yl)phenyl)amino)thieno [3,2-d]pyrimidin-4-yl)oxy)benzonitrile] | 6020 ± 3140 | 2510 ± 155 | 6290 ± 3270 | 193 ± 77 | 64 ± 21 | 1.0 | > 27400 | > 431 | 27400 ± 1200 | – | – | – | EC50 [1]: 4950 ± 1980 nM; RF F227L + V106A [1]: 77.8; RF Y188L [2]: 94.7; RF L100I [3]: 39.4; RF Y181C [4]: 98.8; RF E138K [5]: 3.0; EC50 [6]: 81 ± 8 nM; RF K103N [6]: 1.3; IC50 [9]: 354 ± 43 nM |
| Cc1cc(C#N)cc(C)c1Oc1nc(Nc2ccc(B3OC(C)(C)C(C)(C)O3)cc2)nc2sccc12 [Compound 3b, 3,5-Dimethyl-4-((2-((4-(4,4,5,5-tetramethyl-1,3,2-dioxaborolan-2-yl)phenyl)amino)thieno [2,3-d]pyrimidin-4-yl)oxy)benzonitrile] | – | – | – | – | 1300 ± 275 | 1.0 | 174000 ± 34500 | 134 | > 254000 | – | – | – | – |
| Cc1cc(C#N)cc(C)c1Oc1nc(Nc2ccc(B3OC(C)(C)C(C)(C)O3)cc2)nc2ncsc12 [Compound 3d, 3,5-Dimethyl-4-((5-((4-(4,4,5,5-tetramethyl-1,3,2-dioxaborolan-2-yl)phenyl)amino)thiazolo [4,5-d]pyrimidin-7-yl)oxy)benzonitrile] | – | – | – | – | 120 ± 56 | 1.0 | > 24100 | > 201 | 24100 ± 3760 | 117 to 119 | 201 | < 1 | – |
| Cc1cc(C#N)cc(C)c1Oc1nc(Nc2ccc(B3OC(C)(C)C(C)(C)O3)cc2)nc2scnc12 [Compound 3e, 3,5-Dimethyl-4-((5-((4-(4,4,5,5-tetramethyl-1,3,2-dioxaborolan-2-yl)phenyl)amino)thiazolo [5,4-d]pyrimidin-7-yl)oxy)benzonitrile] | – | – | – | – | 215 ± 91 | 1.0 | > 26500 | > 123 | 26500 ± 1780 | – | – | – | – |
| Cc1cc(C#N)cc(C)c1Oc1ccnc(Nc2ccc(B3OC(C)(C)C(C)(C)O3)cc2)n1 [Compound 3f, 3,5-Dimethyl-4-((2-((4-(4,4,5,5-tetramethyl-1,3,2-dioxaborolan-2-yl)phenyl)amino)pyrimidin-4-yl)oxy)benzonitrile] | – | – | – | – | 149 ± 49 | 1.0 | > 30600 | > 206 | 30600 ± 1920 | 202 to 204 | 206 | < 1 | – |
| Cc1cc(C#N)cc(C)c1Oc1nc(Nc2ccc(B3OC(C)(C)C(C)(C)O3)cc2)nc2ccccc12 [Compound 3g, 3,5-Dimethyl-4-((2-((4-(4,4,5,5-tetramethyl-1,3,2-dioxaborolan-2-yl)phenyl)amino)quinazolin-4-yl)oxy)benzonitrile] | – | – | – | – | 6170 ± 1830 | 1.0 | > 254000 | > 41.1 | > 254000 | 147 to 149 | > 41 | – | – |
| Cc1cc(C#N)cc(C)c1Oc1nc(Nc2ccc(B3OC(C)(C)C(C)(C)O3)cc2)nc2cccnc12 [Compound 3h, 3,5-Dimethyl-4-((2-((4-(4,4,5,5-tetramethyl-1,3,2-dioxaborolan-2-yl)phenyl)amino)pyrido [3,2-d]pyrimidin-4-yl)oxy)benzonitrile] | – | – | – | – | 112 ± 24 | 1.0 | > 26000 | > 232 | 26000 ± 2330 | 177 to 179 | 232 | < 1 | fold more potent than 3g (wild-type HIV-1 (IIIB)): 55 fold |
| Cc1cc(C#N)cc(C)c1Oc1nc(Nc2ccc(B3OC(C)(C)C(C)(C)O3)cc2)nc2c1CCCC2 [Compound 3i, 3,5-Dimethyl-4-((2-((4-(4,4,5,5-tetramethyl-1,3,2-dioxaborolan-2-yl)phenyl)amino) -5,6,7,8-tetrahydroquinazolin-4-yl)oxy)benzonitrile] | – | – | – | – | 191 ± 88 | 1.0 | > 27700 | > 145 | 27700 ± 1270 | 233 to 235 | 145 | < 1 | – |
| Cc1cc(C#N)cc(C)c1Oc1nc(Nc2ccc(B3OC(C)(C)C(C)(C)O3)cc2)nc2c1SCCC2 [Compound 3j, 3,5-Dimethyl-4-((2-((4-(4,4,5,5-tetramethyl-1,3,2-dioxaborolan-2-yl)phenyl)amino) -7,8-dihydro-6H-thiopyrano [3,2-d]pyrimidin-4-yl)oxy)benzonitrile] | – | – | – | – | 141 ± 53 | 1.0 | > 25900 | > 184 | 25900 ± 1410 | 201 to 203 | 184 | < 1 | – |
| O=C1Nc2ccc(Cl)cc2[C@@](C#CC2CC2)(C(F)(F)F)O1 [EFV, efavirenz, reference compound] | 261 ± 118 | 32 ± 8 | 5 ± 2 | 6 ± 2 | 3 ± 1 | – | 337 ± 149 | – | – | – | – | – | EC50 [6]: 71 ± 20 nM; CC50 at 5 days [8, 10]: > 6350 nM |
| Cc1cc(C#N)cc(C)c1Oc1nc(Nc2ccc(C#N)cc2)nc(N)c1Br [ETR, etravirine, reference compound] | 19 ± 7 | 8 ± 2 | 16 ± 5 | 10 ± 5 | 4 ± 1 | – | 61 ± 34 | – | > 4600 | – | – | – | EC50 [1]: 26 ± 17 nM; EC50 [6]: 3 ± 8 nM |
| Cc1ccnc2c1NC(=O)c1cccnc1N2C1CC1 [NVP, nevirapine, reference compound] | 9080 ± 2410 | 623 ± 277 | 5060 ± 922 | 168 | 151 ± 37 | 1.0 | > 15000 | 99.9 | – | – | – | – | EC50 [1]: 8050 ± 3540 nM; RF F227L + V106A [1]: 53.5; RF Y188L [2]: 60.4; RF L100I [3]: 4.1; RF Y181C [4]: 33.6; RF E138K [5]: 1.1; RF K103N [6]: 26.1; CC50 at 5 days [8, 10]: > 15000 nM |
